Data on 5 compounds can be found in patent publication US20260325541A1, “BENZGALANTAMINE FOR TREATING PERSISTENT POST-CONCUSSION SYMPTOMS” (Alpha Cognition Inc., priority 2023, published 2026).

Where a name gives a salt, the structure may show the parent alone.

The subject of data set [1] is patients with chronic TBI. The conditions noted are these: oral, cited from earlier work; for adverse effects: chronic TBI patients; for TBI-related symptoms: patient reported, not placebo controlled.
The conditions of data set [2]: 43% RH (RT); from WO 2022/150917; cited from earlier work.
Data set [3] in a line: Solid-state stability of Form A. The format is physicochemical. On the procedure:
As described therein, polymorphic studies were conducted with benzgalantamine utilizing a variety of solvents and crystallization conditions (Table 5 of WO 2022/150917) and subsequent XRPD analyses. Seven unique crystalline materials were observed and isolated, and were designated as Forms A, B, C, D and Materials E, F and G (FIG. 6 of WO 2022/150917). Amorphous material was also observed. Form A of benzgalantamine is an anhydrous crystalline material with concomitant melt/decomposition onset near 117 °C. […] Based upon WO 2022/150917, anhydrous Form A, stored under appropriate temperature and humidity conditions to maintain its Form and stability, appears best suited of the various benzgalantamine forms to be used in formulation and manufacture of drug products.
As used herein, the term stable may relate to either chemical stability or to polymorph stability. Polymorph stability refers to the likelihood of a polymorph form remaining in its specific crystalline state under suitable storage conditions. For example, a stable polymorph form will maintain at least about 95% by weight, preferably at least about 98% by weight, and more preferably at least about 99% by weight or more of the crystalline form, in other words the form remains unchanged after storage under the indicated conditions for the indicated time.

The next data set relates to C. albicans ATCC 10231. The data set is described as follows: USP 51 antimicrobial effectiveness test, C. albicans. The format is cell-based, Candida albicans. To be noted: for CFU/mL: initial 6.7 × 10^5 CFU/mL, 22.5±2.5 °C; for Log Reduction: initial log10 5.8. On the procedure: (§1) As shown in WO2022236396A1, in order to assess the anti-microbial properties of ALPHA-1062, the USP (US Pharmacopeia) Chapter 51 Preservative Challenge Test (USP 51) was employed. The USP 51 is a common method used to gauge preservative effectiveness. Much like a Preservative Challenge Screen, it is used to evaluate the effect of preservatives in cosmetics, personal care products, and drug products. Preservatives are typically antimicrobial ingredients that are added to aqueous product formulations to help maintain the safety of the product by inhibiting the growth and reducing the number of microbial contaminants.
(§2) In the context of the present invention, ALPHA-1062 (in the form of the gluconate salt) was assessed in place of (as) a preservative. No additional preservative was added to the ALPHA-1062 gluconate preparation, rather an anti-microbial effect of the agent itself (ALPHA-1062) was assessed. ALPHA-1062 is therefore the anti-microbial agent in the assay and experiments described below.
(§3) The USP 51 challenge test utilizes 5 microorganisms (3 bacteria and 2 fungi) for challenge testing. Each of the microorganisms are known strains of pathogenic microorganisms and they represent a wide range of microbial physiologies.
(§4) Cultures of the following microorganisms were applied, as per standard guidelines for USP 51: Candida albicans (ATCC No. 10231), Aspergillus brasiliensis (ATCC No. 16404), Escherichia coli (ATCC No. 8739), Pseudomonas aeruginosa (ATCC No. 9027), and Staphylococcus aureus (ATCC No. 6538). […]
(§5) The initial concentration of viable microorganisms in each test preparation was estimated based on the concentration of microorganisms in each of the standardized inoculums, as determined by the plate-count method.
(§6) The inoculated containers were incubated at 22.5±2.5 °C and each container was sampled at the appropriate intervals, as specified in Table 3. Any changes observed in the appearance of the culture was recorded at these intervals. By using the plate-count procedure, the number of CFU present in each test preparation was determined for the applicable intervals.
(§7) An inactivator (neutralizer) of the specific antimicrobial was incorporated in the plate count or in the appropriate dilution prepared for plating. These conditions were determined in the validation study for that sample based upon the conditions of media and microbial recovery incubation times listed in Table 2. Using the calculated concentrations of CFU per mL present at the start of the test, the change in log 10 values of the concentration of CFU per mL for each microorganism was calculated at the applicable test intervals, and the changes were expressed in terms of log reductions.

In a further data set the test system is E. coli ATCC 8739. The data set is described as follows: USP 51 antimicrobial effectiveness test, E. coli. The format is cell-based, Escherichia coli. To be noted: for CFU/mL: initial 9.1 × 10^5 CFU/mL, 22.5±2.5 °C; for Log Reduction: initial log10 6.0. As for the experimental part:
as §1, §2, §3, §4, §5, §6, §7

The subject of the next data set is S. aureus ATCC 6538. The data set is described as follows: USP 51 antimicrobial effectiveness test, S. aureus. The format is cell-based, Staphylococcus aureus. To be noted: for CFU/mL: initial 4.0 × 10^5 CFU/mL, 22.5±2.5 °C; for Log Reduction: initial log10 5.6. On the procedure:
as §1, §2, §3, §4, §5, §6, §7

The subject of another data set is P. aeruginosa ATCC 9027. The data set is described as follows: USP 51 antimicrobial effectiveness test, P. aeruginosa. The format is cell-based, Pseudomonas aeruginosa. To be noted: for CFU/mL: initial 2.9 × 10^5 CFU/mL, 22.5±2.5 °C; for Log Reduction: initial log10 5.5. As for the experimental part: as §1, §2, §3, §4, §5, §6, §7
In data set [4] the test system is A. brasiliensis ATCC 16404. Description: USP 51 antimicrobial effectiveness test, A. brasiliensis. The format is cell-based, Aspergillus brasiliensis. To be noted: for CFU/mL: initial 2.2 × 10^5 CFU/mL, 22.5±2.5 °C; for Log Reduction: initial log10 5.3. As for the experimental part:
as §1, §2, §3, §4, §5, §6, §7

Data set [5] deals with all 5 organisms tested in the USP 51. Description: USP 51 overall assessment against Category 2 criteria. The format is cell-based. The conditions noted are these: USP 51, Category 2 criteria, 14 and 28 days. On the procedure: as §1
In the context of the present invention, ALPHA-1062 (in the form of the gluconate salt) was assessed in place of (as) a preservative. No additional preservative was added to the ALPHA-1062 gluconate preparation, rather an anti-microbial effect of the agent itself (ALPHA-1062) was assessed. […]
as §5
The inoculated containers were incubated at 22.5±2.5 °C and each container was sampled at the appropriate intervals, as specified in Table 3. Any changes observed in the appearance of the culture was recorded at these intervals. […]

For data set [6] the following is noted: intra-nasal administration, similar doses; cited from earlier work.
Data set [7] relates to mice after repeated blast mild traumatic brain injury (blast mTBI). The data set is described as follows: Thermal Gradient Ring (TGR) assessment of heat/pain sensitivity after repetitive blast mTBI. The format is in vivo, C57Bl/6 mice. The conditions noted are these: after one month of treatment, 3.0 mg/kg.
Data set [8] is described as follows: Body weight / overt toxicity over the 35-day study. The format is in vivo, male Wistar rats. From the text:
Young adult (2-3 months) male Wistar rats were subjected to a moderate TBI induced by controlled cortical impact (CCI). Animal models of TBI including the CCI model and functional tests have been described in detail in peer reviewed publications (Xiong et al., 2013, Nat Rev Neurosci.; Zhang et al., 2016, J Neurosurg.; Zhang et al., 2016, Neurochem Int.; Zhang et al., 2021, J Neurotrauma). Injury consisted of a single impact at 4.0 m/see, 2.5 mm deformation to the left parietal cortex. In addition, a group of animals was left healthy/not injured to serve as a healthy control.
The animals were divided into 3 groups: • 1) TBI+Vehicle (purified water, n=10) • 2) TBI+ALPHA-1062 (4.5 mg/kg) (n=10) • 3) Healthy/not injured and not treated (Sham surgery) (n=10)
The substance used in this study was ALPHA-1062 at 4.5 mg/kg. As control treatment (vehicle) purified water was administered intranasally (IN). The ALPHA-1062 and the control treatment were initiated 2 hours after injury and continued twice daily (with a 6-hour interval) for 35 consecutive days.
Data were evaluated for normality applying the following statistical analyses: Data transformation was considered if the data was abnormal. The data was analyzed with GraphPad Prism Software 9.0. All data herein is presented as the mean±standard deviation (SD) and were analyzed with one-way analysis of variance (ANOVA) or two-way ANOVA (treatment x time) followed by post hoc Tukey's multiple comparison test (more than two groups). Differences between means are considered statistically significant when p is <0.05.

For the compound `CCN(C)C(=O)Oc1cccc([C@H](C)N(C)C)c1` [rivastigmine], in [1], the adverse effects result is given as “about half of all patients experienced disturbing adverse effects” and the TBI-related symptoms entry is “subjective improvement of TBI-related symptoms”.

Consider `COc1cc2c(cc1OC)C(=O)C(CC1CCN(Cc3ccccc3)CC1)C2` (centres unmarked) [donepezil], for which, in [1], the adverse effects entry is given as “about half of all patients experienced disturbing adverse effects” and the TBI-related symptoms entry is given as “subjective improvement of TBI-related symptoms”.

As to `COc1ccc2c3c1O[C@H]1C[C@@H](OC(=O)c4ccccc4)C=C[C@@]31CCN(C)C2.O=C(O)C(O)C(O)C(O)C(O)CO` [Form A], in [2], the “duration for which Form A was sustained” value is recorded as “up to 5 days” and the “kinetic stability in the solid state” value is “kinetically stable in the solid state”. In addition, the chemical stability entry in data set [3] (appropriate storage conditions) was “good chemical stability”. The “polymorph stability on storage” value in [3] (room temperature, at or under about 43% RH or less than 0.12 aw, multiple months) is “good stability”.

On to `COc1ccc2c3c1O[C@H]1C[C@@H](OC(=O)c4ccccc4)C=C[C@@]31CCN(C)C2` [ALPHA-1062 Gluconate, (4aS,6R,8aS)-4a,5,6,9,10,11,12-hexahydro-3-methoxy-11-methyl-6H-benzofuro[3a,3,2-ef][2]benzazepin-6-benzoate-gluconate salt], for which the CFU/mL in the data set with C. albicans ATCC 10231 (Day 14), in the data set with C. albicans ATCC 10231 (Day 28), in the data set on E. coli ATCC 8739 (Day 14), with E. coli ATCC 8739 (Day 28), in the data set with S. aureus ATCC 6538 (Day 14) and in the data set with S. aureus ATCC 6538 (Day 28) was less than 10 CFU/mL each time. For the same compound, the CFU/mL is reported as less than 10 CFU/mL in the data set on P. aeruginosa ATCC 9027 (Day 14), less than 10 CFU/mL with P. aeruginosa ATCC 9027 (Day 28), 1.6 × 10^2 CFU/mL in data set [4] (Day 14) and 1.5 × 10^2 CFU/mL in [4] (Day 28). Further, the “Log Reduction” value in the data set with C. albicans ATCC 10231 (Day 14) turned out to be 4.8 Log; in the data set on C. albicans ATCC 10231 (Day 28), 4.8 Log; in the data set on E. coli ATCC 8739 (Day 14) it was 5.0 Log; with E. coli ATCC 8739 (Day 28), 5.0 Log; in the data set on S. aureus ATCC 6538 (Day 14), 4.6 Log; in the data set with S. aureus ATCC 6538 (Day 28), 4.6 Log. In addition, the “Log Reduction” value with P. aeruginosa ATCC 9027 (Day 14) turned out to be 4.5 Log; in the data set on P. aeruginosa ATCC 9027 (Day 28), 4.5 Log; in [4] (Day 14), 3.1 Log; in data set [4] (Day 28), 3.1 Log. Also, the anti-microbial effect entry in [5] is given as “strong anti-microbial effect against all 5 organisms tested in the USP 51”.

Turning to `COc1ccc2c3c1O[C@H]1C[C@@H](OC(=O)c4ccccc4)C=C[C@@]31CCN(C)C2` [ALPHA-1062, (4aS,6R,8aS)-5,6,9,10,11,12-hexahydro-3-methoxy-11-methyl-4aH-[1]benzofuro[3a,3,2-ef][2]benzazepin-6-ol benzoate], in data set [6], the “bioavailability in the brain vs oral galantamine” value is reported as “higher bioavailability in the brain, than similar doses of oral galantamine”. For the same compound, the “persistence of structural/functional benefit following removal of drug treatment” value in [7] was “at least 2 months”. Moreover, in [8] (35 days, 4.5 mg/kg IN twice daily), the “overt toxicity vs vehicle animals” value is “did not show overt toxicity”. Also, the results for the “body weight change vs day zero” value in [8] (days 1-7 (D1-7)) and in data set [8] (days 29-35 (D29-35)) were “significant body weight loss (p<0.05)” and “significant body weight gain”, respectively. Also, the “body weight vs vehicle treated or untreated animals” value in data set [8] (each time point D0-D35, 4.5 mg/kg IN twice daily, FIG. 10) was “no significant alterations in body weight compared to vehicle treated or untreated animals”.
